Entries after “also recorded” stand apart in the source; their conditions may differ.

The test system of one data set is MAP2. Kind of data set: Binding (affinity) by displacement of PREG-3H.
The subject of data set [1] is purified tubulin and MAP2. The data set is described as follows: Activity: increase in optical density at 345 nm of purified tubulin and MAP2 with GTP. The class given is biochemical. The conditions noted are these: 37° C. The method, then:
Activity is measured by the increase in optical density at 345 nm of a mixture of purified tubulin and MAP2, incubated at 37° C. in the presence of GTP.

The next data set deals with PC12 cells. Kind of data set: Stimulation of neuritic sprouting on PC12 cells differentiated with NGF. The conditions noted are these: NGF 10 ng/ml, steroid 30 μM, 3 days, relative to PREG. The class given is cell-based. How it is done:
Stimulation of neuritic sprouting is conducted on PC12 cells differentiated in the presence of NGF (10 ng/ml) and the steroid being tested (30 μM) for 3 days. For each condition, the average length of the longest 200 neurites in each cell is measured simultaneously for 3 cultures.

The subject of data set [2] is Wistar Kyoto rat strain (WKY). The conditions noted are these: WKY rats, literature; cited from earlier work.
The next data set has as its system Wistar Kyoto (WKY) rats. Kind of data set: Open-field arena (OFA) in WKY rats, acute treatment. The class given is in vivo, rat. The conditions noted are these: fluoxetine 10 mg/kg i.p., ketamine 30 mg/kg i.p.; for number of entries in the central square of OFA, change vs WKY receiving only vehicle: FIG. 5B; for time spent in the center of open-field vs WKY receiving vehicle: FIG. 5C. How it is done:
After a 6-day period of acclimatization, all experimental groups received daily successive subcutaneous (250 μl per rat) and intraperitoneal (1 ml/kg) injections. WI rats received injection of vehicle (sesame oil+saline) while WKY rats were randomly assigned to […] experimental groups, as follow: KWY rats receiving only vehicle (sesame oil+saline) and WKY rats treated with MAP4343 (10 mg/kg, s.c.; rats received in parallel i.p. injections of saline), fluoxetine (10 mg/kg i.p., rats received in parallel s.c. injections of sesame oil) or ketamine (30 mg/kg, i.p.; rats received in parallel s.c. injections of sesame oil) (see FIG. 3).
After, a 6-day period of acclimatization, the acute phase of treatment started for 4 days during behavioral tests were performed (FIG. 3). All animals were injected 1 h 30 before the starting of behavioral test.
The animals were individually placed in the open field arena (OFA) (70×100×70 cm), with a central square (35×50 cm), located in a 50 lux illuminated room and videotaped during 3 min using a computerized system (VideoTrack V2.5, ViewPoint, Lyon, France).
OFA allows firstly the evaluation of total locomotor activity (LMA) thereby measuring the total distance travelled in the arena (in cm). Secondly, measurements of the activity in the center of the arena like (i) the number of entries in the center of arena and (ii) the total time spent in the center of arena (in sec) provide cues of anxiety-like behavior (Prut and Belzung, 2003). All these behavioral parameters were instantaneously measured automatically with the VideoTrack V2.5 software from the videos.

The next data set has as its system WKY rats. The conditions noted are these: cited from earlier work; for resistance of WKY rats to the drug: fluoxetine acute or chronic, citalopram acute, paroxetine sub-chronic (12 days).
Data set [3] is described as follows: Body weight of WKY rats under acute treatment. The class given is in vivo, rat. The conditions noted are these: fluoxetine 10 mg/kg.
Data set [4] addresses T1, human progesterone receptor (PR) (Homo sapiens, UniProt P06401).
T1 construct: expressed in transfected cells; host or cells: HEK293T
T1 sequence (P06401 1-933): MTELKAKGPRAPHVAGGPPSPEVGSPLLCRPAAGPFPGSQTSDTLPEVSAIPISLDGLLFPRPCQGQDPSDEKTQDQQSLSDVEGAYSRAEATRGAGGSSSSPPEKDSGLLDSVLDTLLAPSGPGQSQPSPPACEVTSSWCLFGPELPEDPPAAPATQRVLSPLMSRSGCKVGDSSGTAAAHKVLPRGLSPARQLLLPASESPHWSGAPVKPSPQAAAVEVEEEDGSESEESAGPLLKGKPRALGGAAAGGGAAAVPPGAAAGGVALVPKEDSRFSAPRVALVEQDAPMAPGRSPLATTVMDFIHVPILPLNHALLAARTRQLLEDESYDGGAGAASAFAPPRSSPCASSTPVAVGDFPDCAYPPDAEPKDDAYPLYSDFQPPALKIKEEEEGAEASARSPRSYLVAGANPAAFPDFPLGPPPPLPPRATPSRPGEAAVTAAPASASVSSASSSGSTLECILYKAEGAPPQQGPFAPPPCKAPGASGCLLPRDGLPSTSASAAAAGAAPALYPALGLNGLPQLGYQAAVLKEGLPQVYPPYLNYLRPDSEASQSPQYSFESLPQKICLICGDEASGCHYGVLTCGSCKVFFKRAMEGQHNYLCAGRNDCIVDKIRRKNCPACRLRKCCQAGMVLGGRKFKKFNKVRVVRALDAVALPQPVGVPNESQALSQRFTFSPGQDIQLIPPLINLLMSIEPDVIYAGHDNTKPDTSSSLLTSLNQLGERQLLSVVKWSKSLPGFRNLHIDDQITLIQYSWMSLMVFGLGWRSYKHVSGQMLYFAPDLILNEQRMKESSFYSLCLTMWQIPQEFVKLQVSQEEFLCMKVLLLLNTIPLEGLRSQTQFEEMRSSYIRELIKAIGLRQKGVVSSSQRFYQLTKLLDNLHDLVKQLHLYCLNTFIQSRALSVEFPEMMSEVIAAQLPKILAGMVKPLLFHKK
Kind of data set: Test of progesterone receptor agonist activity (MMTV-luciferase transactivation in transfected HEK293T cells). The class given is cell-based. The conditions noted are these: 24 hours, increasing amounts, FIG. 1. How it is done:
The main experimental setting used is the following: HEK293T cells were transiently transfected, using calcium phosphate precipitation technology, with expression vectors pSG5hPR (which permits expression of human progesterone receptor (PR)), pFC31-luc (contains the luciferase gene under the control of the MMTV promoter, which is in turn activated by binding of a progestin to progesterone receptor) and pcbetagal (which permits expression of betagalactosidase), and cultured during 24 hours with increasing amounts of various compositions:
Test of Progesterone Receptor Agonist Activity: Transfected Cells were Cultured with Increasing Amounts of Progesterone or 3-Methoxy-Pregnenolone

Take `CC(=O)[C@H]1[C@H](C)C[C@H]2[C@@H]3CC[C@H]4C[C@@H](O)CC[C@]4(C)[C@H]3CC[C@@]21C` [3β-hydroxy-5α-pregnane-20-one-16α-methyl]: in the data set on MAP2, the Affinity was 57% of PREG. In addition, the Activity in data set [1] is 53% of PREG.

Turning to `CO[C@H]1CC[C@@]2(C)[C@@H](CC[C@@H]3[C@@H]2CC[C@]2(C)[C@@H](C(C)=O)CC[C@@H]32)C1` [3β-methoxy-5α-pregnane-20-one], the Affinity in the data set with MAP2 is 87% of PREG. In data set [1], the Activity is reported as 10% of PREG.

Take `CO[C@H]1CC[C@@]2(C)C(CCC3C2CC[C@@]2(C)C3CC[C@@H]2[C@@H](C)O)C1` (stereo partly drawn) [3β-methoxy-5α-pregnane-20β-ol]: the Affinity in the data set on MAP2 is on record as 65% of PREG. Besides, the Activity in data set [1] is listed as 65% of PREG.

Take `CO[C@H]1CC[C@@]2(C)C(=CC[C@H]3C4=CC[C@H](C(C)=O)[C@@]4(C)CC[C@@H]32)C1` [3β-methoxy-pregna-5,14-diene-20-one]: the Affinity in the data set on MAP2 is reported as 102% of PREG. Further, the Activity in data set [1] is 50% of PREG.

Regarding `CO[C@H]1CC[C@@]2(C)C(=CC[C@@H]3[C@@H]2CC[C@@]2(C)[C@H]3CC[C@@]2(C(C)=O)C(Cl)Cl)C1` [3β-methoxy-pregna-5-ene-20-one-17α-dichloromethyl], the Affinity in the data set on MAP2 is given as 53% of PREG. Also, the Activity in data set [1] is 113% of PREG.

`CC(=O)[C@@]12C[C@@H]1C[C@H]1[C@@H]3CC=C4C[C@@H](O)CC[C@]4(C)[C@H]3CC[C@@]12C` [PREG-16α,17α-methylene]: in the data set on PC12 cells, the Neuritic sprouting result is given as “+ (lower than)”. In the data set with MAP2, the Affinity is on record as 62% of PREG. The Activity in data set [1] is given as 49% of PREG.

Take `CC(=O)[C@H]1[C@H](C)C[C@H]2[C@@H]3CC=C4C[C@@H](O)CC[C@]4(C)[C@H]3CC[C@@]21C` [PREG-16α-methyl]: in the data set on PC12 cells, the Neuritic sprouting entry was “++ (equal to)”. Also, the Affinity in the data set on MAP2 is recorded as 80% of PREG. Moreover, in data set [1], the Activity was 70% of PREG.

Turning to `CC(=O)[C@H]1[C@@H](C)C[C@H]2[C@@H]3CC=C4C[C@@H](O)CC[C@]4(C)[C@H]3CC[C@@]21C` [PREG-16β-methyl], the Affinity in the data set on MAP2 is listed as 63% of PREG. In addition, the Activity in data set [1] is given as 67% of PREG.

For `CC(=O)OC(C)C1CCC2C3CC=C4CC(O)CCC4(C)C3CCC12C` (stereo not drawn) [Pregna-5-ene-3β, 20β-dio1-20-acetate], the Neuritic sprouting entry in the data set on PC12 cells is on record as “++ (equal to)”. In addition, in the data set on MAP2, the Affinity was 60% of PREG. Besides, the Activity in data set [1] is given as 108% of PREG.

As to `CC(=O)[C@H]1CC[C@H]2[C@@H]3CC=C4C[C@@H](O)CC[C@]4(C)[C@H]3CC[C@]12C` [Pregnenolone (PREG), 3β-hydroxypregn-5α-en-20α-one, reference compound], the Neuritic sprouting result in the data set on PC12 cells is “++ (equal to)”. In addition, in the data set with MAP2, the Affinity is listed as 100% of PREG. Besides, the Activity in data set [1] is 100% of PREG.

Take `CNCCCN1c2ccccc2CCc2ccccc21` [desipramine]: the “immobility / depressive-like behavior in FST” value in data set [2] was “efficient to reverse depressive-like behavior”.

`CNCCC(Oc1ccc(C(F)(F)F)cc1)c1ccccc1` (stereo not drawn) [fluoxetine]: in the data set on Wistar Kyoto (WKY) rats (MAP4343 10 mg/kg s.c.), the “number of entries in the central square of OFA, change vs WKY receiving only vehicle” value is given as “failed to significantly modify the low entries in the center” and the “time spent in the center of open-field vs WKY receiving vehicle” value is reported as “did not induce any significant change of this measure”. In addition, the “locomotor activity (total distance travelled in the open-field arena), change vs MAP4343-treated WKY” value in the data set with Wistar Kyoto (WKY) rats (FIG. 5A) is given as −52%. Besides, the “efficacy in OFA, EPM and FST” value in the data set on WKY rats (WKY rats, acute or chronic administration) is “no efficacy”. Further, the “resistance of WKY rats to the drug” value in the data set on WKY rats is reported as “resistant”. Moreover, in data set [3], the body weight result is given as “a reduced body weight”.

On to `CNC1(c2ccccc2Cl)CCCCC1=O` (stereo not drawn) [ketamine], for which the “locomotor activity (total distance travelled in the open-field arena), change vs WKY receiving vehicle” value in the data set with Wistar Kyoto (WKY) rats (MAP4343 10 mg/kg s.c., 3 min, FIG. 5A) is “no significant change of locomotor activity”. In the data set with Wistar Kyoto (WKY) rats (MAP4343 10 mg/kg s.c.), the “number of entries in the central square of OFA, change vs WKY receiving only vehicle” value is recorded as “failed to significantly modify the low entries in the center” and the “time spent in the center of open-field vs WKY receiving vehicle” value is given as “did not induce any significant change of this measure”. The “locomotor activity (total distance travelled in the open-field arena), change vs MAP4343-treated WKY” value with Wistar Kyoto (WKY) rats (FIG. 5A) is given as “no significant change of locomotor activity”. The “immobility / depressive-like behavior in FST” value in data set [2] is reported as “elicited antidepressant-like effect; also recorded: decrease immobility”.

Turning to `Fc1ccc([C@@H]2CCNC[C@H]2COc2ccc3c(c2)OCO3)cc1` [paroxetine], the “resistance of WKY rats to the drug” value in the data set on WKY rats was “resistant”.

In the case of `NNCCc1ccccc1` [phenelzine], the “immobility / depressive-like behavior in FST” value in data set [2] is listed as “subacute efficacy to reduce immobility”.

For `CC(=O)[C@H]1CC[C@H]2[C@@H]3CCC4=CC(=O)CC[C@]4(C)[C@H]3CC[C@]12C` [progesterone, reference compound], in data set [4], the “progesterone receptor agonist activity (transactivation, expression of luciferase)” value was “permits a transactivation activity”.

On to PREG-16α,17α-epoxy, for which the Neuritic sprouting entry in the data set with PC12 cells was “+ (lower than)”. In addition, the Affinity with MAP2 is 41% of PREG. In data set [1], the Activity is 54% of PREG.

The record behind these values is patent US9943528B2 (MAPREG, priority 2016, dated 2018).
